Results from ChEMBL document CHEMBL4765365, “Design, synthesis and antitumour evaluation of pyrrolo[1,2-f]-phenanthridine and dibenzo[f,h]pyrrolo[1,2-b]isoquinoline derivatives” (Eur J Med Chem, 2020).
One block for each molecule: values may come before it. Calls of active or inactive are those of the source. The calls are words filed in the database; no cut-off is given here.

What was measured:
CCRF-CEM = assay: Cytotoxicity against human CCRF-CEM cells assessed as reduction in cell viability incubated for 72 hrs by XTT assay; format: functional, cell-based
CEM-VLB = assay: Cytotoxicity against human CEM-VLB cells assessed as reduction in cell viability incubated for 72 hrs by XTT assay; format: functional, cell-based
HCT-116 = assay: Cytotoxicity against human HCT-116 cells assessed as reduction in cell viability incubated for 72 hrs by XTT assay; format: functional, cell-based; settings: HCT-116, 72 h
NCI-H1650 = assay: Cytotoxicity against human NCI-H1650 cells assessed as reduction in cell viability incubated for 72 hrs by XTT assay; format: functional, cell-based; settings: NCI-H1650, 72 h
NCI-H460 = assay: Cytotoxicity against human NCI-H460 cells assessed as reduction in cell viability incubated for 72 hrs by XTT assay; format: functional, cell-based; settings: NCI-H460, 72 h
[1] = Cytotoxicity against human PacaS1 cells assessed as reduction in cell viability incubated for 72 hrs by XTT assay; format: functional, cell-based; settings: PacaS1, 72 h
dsDNA = assay: Induction of pBR322 DNA interstand crosslink at 1 to 20 uM incubated for 2 hrs by agarose gel electrophoresis assay; settings: dose 1-20 µM

SMILES: CCNC(=O)OCc1c(COC(=O)NCC)c2c3ccccc3c3ccccc3n2c1-c1ccc(OC)cc1
- IC50 (CCRF-CEM): 3010 nM
- IC50 (CEM-VLB): 2850 nM

- Activity (dsDNA): Active
SMILES: Cc1c(CO)c(CO)c2c3ccccc3c3ccccc3n12
- IC50 (CCRF-CEM): 910 nM
- IC50 (CEM-VLB): 550 nM
- IC50 (HCT-116): 1.88 µM
- IC50 (NCI-H1650): 4.46 µM
- IC50 (NCI-H460): 2.87 µM
- IC50 [1]: 3.5 µM

SMILES: CCc1c(COC(=O)NC(C)C)c(COC(=O)NC(C)C)c2c3ccccc3c3ccccc3n12
- IC50 (CCRF-CEM): 1890 nM
- IC50 (CEM-VLB): 1550 nM
- IC50 (HCT-116): 16.2 µM
- IC50 (NCI-H1650): 10.2 µM
- IC50 (NCI-H460): 4.98 µM
- IC50 [1]: 4.58 µM

SMILES: OCc1c(CO)c2c3ccccc3c3ccccc3n2c1-c1ccc(F)cc1
- IC50 (CCRF-CEM): 8090 nM
- IC50 (CEM-VLB): 6440 nM

SMILES: OCc1c(CO)c2c3ccccc3c3ccccc3n2c1-c1ccccc1
- IC50 (CCRF-CEM): 9820 nM
- IC50 (CEM-VLB): 10900 nM
- IC50 (HCT-116): 73.3 µM
- IC50 (NCI-H1650): 39 µM
- IC50 (NCI-H460): 37.5 µM
- IC50 [1]: 36.7 µM

SMILES: COc1ccc(-c2c(COC(=O)NC(C)C)c(COC(=O)NC(C)C)c3c4ccccc4c4ccccc4n23)cc1
- IC50 (CCRF-CEM): 2190 nM
- IC50 (CEM-VLB): 2760 nM

SMILES: CCNC(=O)OCc1c(COC(=O)NCC)c2c3ccccc3c3ccccc3n2c1CC
- IC50 (CCRF-CEM): 1890 nM
- IC50 (CEM-VLB): 1680 nM
- IC50 (HCT-116): 8.53 µM
- IC50 (NCI-H1650): 10.1 µM
- IC50 (NCI-H460): 9.09 µM
- IC50 [1]: 5.05 µM

SMILES: COc1ccc(-c2c(CO)c(CO)c3c4ccccc4c4ccccc4n23)cc1
- IC50 (CCRF-CEM): 6340 nM
- IC50 (CEM-VLB): 4770 nM

SMILES: COc1ccc(-c2c(CO)c(CO)c3n2Cc2c(c4ccccc4c4ccccc24)C3)cc1
- IC50 (CCRF-CEM): 2990 nM
- IC50 (CEM-VLB): 2830 nM

- Activity (dsDNA): Active
SMILES: CCc1c(CO)c(CO)c2n1Cc1c(c3ccccc3c3ccccc13)C2
- IC50 (CCRF-CEM): 1380 nM
- IC50 (CEM-VLB): 1080 nM
- IC50 (HCT-116): 2.7 µM
- IC50 (NCI-H1650): 2.39 µM
- IC50 (NCI-H460): 1.33 µM
- IC50 [1]: 2.66 µM

SMILES: OCc1c(CO)c(-c2ccccc2)n2c1Cc1c(c3ccccc3c3ccccc13)C2
- IC50 (CCRF-CEM): 3210 nM
- IC50 (CEM-VLB): 3660 nM
- IC50 (HCT-116): 5.99 µM
- IC50 (NCI-H1650): 7.95 µM
- IC50 (NCI-H460): 2.34 µM
- IC50 [1]: 4.45 µM

SMILES: CCNC(=O)OCc1c(COC(=O)NCC)c2c3ccccc3c3ccccc3n2c1-c1ccccc1
- IC50 (CCRF-CEM): 4090 nM
- IC50 (CEM-VLB): 2480 nM
- IC50 (HCT-116): 21 µM
- IC50 (NCI-H1650): 18.2 µM
- IC50 (NCI-H460): 9.03 µM
- IC50 [1]: 11.1 µM

SMILES: OCc1c(CO)c(-c2ccc(F)cc2)n2c1Cc1c(c3ccccc3c3ccccc13)C2
- IC50 (CCRF-CEM): 6500 nM
- IC50 (CEM-VLB): 6140 nM

SMILES: Cc1c(COC(=O)NC(C)C)c(COC(=O)NC(C)C)c2c3ccccc3c3ccccc3n12
- IC50 (CCRF-CEM): 350 nM
- IC50 (CEM-VLB): 340 nM
- IC50 (HCT-116): 2.12 µM
- IC50 (NCI-H1650): 5.17 µM
- IC50 (NCI-H460): 1.19 µM
- IC50 [1]: 1.8 µM

SMILES: CC[C@]1(O)C[C@@H]2CN(CCc3c([nH]c4ccccc34)[C@@](C(=O)OC)(c3cc4c(cc3OC)N(C)[C@H]3[C@@](O)(C(=O)OC)[C@H](OC(C)=O)[C@]5(CC)C=CCN6CC[C@]43[C@@H]65)C2)C1 [VINBLASTINE]
- IC50 (CCRF-CEM): 1.41 nM
- IC50 (CEM-VLB): 392 nM

SMILES: CC(C)NC(=O)OCc1cn2c3ccccc3c3ccccc3c2c1COC(=O)NC(C)C
- IC50 (CCRF-CEM): 1750 nM
- IC50 (CEM-VLB): 2210 nM
- IC50 (HCT-116): 2.27 µM
- IC50 (NCI-H1650): 9.62 µM
- IC50 (NCI-H460): 7.2 µM
- IC50 [1]: 15.3 µM

SMILES: CCNC(=O)OCc1c(COC(=O)NCC)c2c3ccccc3c3ccccc3n2c1C
- IC50 (CCRF-CEM): 370 nM
- IC50 (CEM-VLB): 370 nM
- IC50 (HCT-116): 2.1 µM
- IC50 (NCI-H1650): 4.47 µM
- IC50 (NCI-H460): 1.2 µM
- IC50 [1]: 2.26 µM

SMILES: CC(C)NC(=O)OCc1c(COC(=O)NC(C)C)c2c3ccccc3c3ccccc3n2c1-c1ccccc1
- IC50 (CCRF-CEM): 3150 nM
- IC50 (CEM-VLB): 4480 nM
- IC50 (HCT-116): 16.2 µM
- IC50 (NCI-H1650): 16.3 µM
- IC50 (NCI-H460): 14.9 µM
- IC50 [1]: 13.8 µM

SMILES: CC(C)NC(=O)OCc1c(COC(=O)NC(C)C)c2c3ccccc3c3ccccc3n2c1-c1ccc(F)cc1
- IC50 (CCRF-CEM): 4100 nM
- IC50 (CEM-VLB): 3170 nM

- Activity (dsDNA): Active
SMILES: Cc1c(CO)c(CO)c2n1Cc1c(c3ccccc3c3ccccc13)C2
- IC50 (CCRF-CEM): 360 nM
- IC50 (CEM-VLB): 340 nM
- IC50 (HCT-116): 1.57 µM
- IC50 (NCI-H1650): 2.69 µM
- IC50 (NCI-H460): 0.18 µM
- IC50 [1]: 1.8 µM

SMILES: CCNC(=O)OCc1c(COC(=O)NCC)c2c3ccccc3c3ccccc3n2c1-c1ccc(F)cc1
- IC50 (CCRF-CEM): 3410 nM
- IC50 (CEM-VLB): 3400 nM

SMILES: CCNC(=O)OCc1cn2c3ccccc3c3ccccc3c2c1COC(=O)NCC
- IC50 (CCRF-CEM): 1280 nM
- IC50 (CEM-VLB): 1240 nM
- IC50 (HCT-116): 1.8 µM
- IC50 (NCI-H1650): 5.73 µM
- IC50 (NCI-H460): 4.25 µM
- IC50 [1]: 4.41 µM

SMILES: CCc1c(CO)c(CO)c2c3ccccc3c3ccccc3n12
- IC50 (CCRF-CEM): 7390 nM
- IC50 (CEM-VLB): 2890 nM
- IC50 (HCT-116): 11.5 µM
- IC50 (NCI-H1650): 13.6 µM
- IC50 (NCI-H460): 9.48 µM
- IC50 [1]: 6.2 µM
